In patent US8518677B2, “Microbial bioreaction process” (Evolva Sa, priority 2007, dated 2013):
Read-outs that look alike come from different tables or passages of the source.

Key:
[1] = Stilbenoid levels in batch culture of non-evolved FS09229 with nonyl-acetate vs control (HPLC); set-up: species or system S. cerevisiae; settings: FS09229-solvent; for Upper phase (0.1 L) % total: 100 ml nonyl-acetate; for Lower phase (1 L) % total: aqueous phase, nonyl-acetate
Method: (§1) A Phenomenex (Torrance, Calif., USA) Luna 3 micrometer C18 (100×2.00 mm) column was used at 60° C. As mobile phase a gradient of acetonitrile and milliq water (both containing 50 ppm trifluoroacetic acid) was used at a flow of 0.4 ml/min. The gradient profile was linear from 15% acetonitrile to 100% acetonitrile over 20 min.
The non-evolved FS09229 strain described in previous examples was grown in the presence of nonyl-acetate. […] The stirrer speed was instantly set at 800 rpm. […] The cultivation will be referred to as FS09229-solvent. […] The cultivation will be referred to as FS09229-control.
(§2) For the determination of stilbenoids, an aliquot of 25 ml of cell broth was collected, and phase separation was initiated by centrifugation at 3500 g for 5 minutes. Both the upper nonylacetate phase and the lower aqueous medium phase were collected separately with a pipette and directly analyzed for their content of stilbenoids and intermediates by HPLC.

[2] = Stilbenoid levels in two-phase batch culture of evolved PALCPR (PALCPR-evolved-I) with octylacetate (HPLC); set-up: species or system S. cerevisiae; settings: for Upper phase (0.1 L) % total: 100 ml octylacetate on 1 L medium; for Lower phase (1 L) % total: aqueous phase, octylacetate
Method: as §1
(§3) For that, cells of the culture described in the previous example were harvested during mid-exponential-phase and stored at −80° C. in 15% glycerol and subsequently a fermentor, containing the same medium as described in the previous example with 10 g/l glucose and 100 g/l galactose, was then inoculated with cells of said PALCPR-solvent culture. The cells were allowed to fully consume the glucose at a stirring speed of 1000 rpm with an average dissolved oxygen content of above 70% of saturated air. At the onset of galactose consumption, the stirring rate was turned down to 300 rpm, after which slowly 100 ml of octylacetate was added.
as §2, with “octylacetate” for “nonylacetate”, “aquous” for “aqueous”, “pipet” for “pipette”

[3] = Stilbenoid levels in two-phase batch culture of PALCPR-evolved-III with octylacetate (HPLC); set-up: species or system S. cerevisiae; settings: for Upper phase (0.1 L) % total: 100 ml octylacetate from start; for Lower phase (1 L) % total: aqueous phase, octylacetate
Method: as §1
The stirrer speed was instantly set at 800 rpm. […] The strain is referred to as PALCPR-evolved-III.
as §2, with “octylacetate” for “nonylacetate”, “aquous” for “aqueous”, “pipet” for “pipette”

[4] = Stilbenoid levels in batch culture of solvent-adapted PALCPR, dodecane/octylacetate two-phase vs control (HPLC); set-up: species or system S. cerevisiae; settings: for Upper phase (0.3 L) % total: 200 ml dodecane + 100 ml octylacetate on 1 L medium; for Lower phase (1 L) % total: aqueous medium phase, dodecane/octylacetate
Method: as §1

[5] = Stilbenoid levels in two-phase batch culture of PALCPR-evolved-II with octylacetate (HPLC); set-up: species or system S. cerevisiae; settings: for Upper phase (0.1 L) % total: 100 ml octylacetate from start; for Lower phase (1 L) % total: aqueous phase, octylacetate
Method: as §1
However, the medium now only contained 100 g/l galactose and did contain 100 ml of octylacetate from the beginning of the fermentation. In addition, the stirrer speed was instantly set at 800 rpm. […] The strain is referred to as PALCPR-evolved-II.
as §2, with “octylacetate” for “nonylacetate”, “aquous” for “aqueous”, “pipet” for “pipette”

[6] = test system: S. cerevisiae strain PALCPR; assay: Growth of evolved PALCPR strains in the presence of extraction solvent (CO2 production); assay type: cell-based
Method: as §3, with “The cells of the PALCPR-solvent culture described in the previous example were taken as starting point because the presence of the solvent mixture would possibly have already evoked adaptation of cells to solvents. For” for “For”
Galactose consumption indeed commenced again. A small arrest in CO2 production again occurred after 20 hours which, however, recovered after 5 hours, after which the cells grew exponentially with concomitant production of CO2, consumption of galactose within less than 40 hours. Based upon the CO2 production the specific growth rate was estimated to be 0.062 1/h (FIG. 2). The final biomass concentration was 21.6 g/l.
In order to further improve said strain in terms of length of lag-phase and growth rate, a 25 ml aliquot of the exponentional growing PALCPR-evolved-I strain was used to inoculate a fermentor, containing a similar medium as described in the previous example. However, the medium now only contained 100 g/l galactose and did contain 100 ml of octylacetate from the beginning of the fermentation. In addition, the stirrer speed was instantly set at 800 rpm. Upon inoculation of the fermentor, consumption of galactose only commenced after approximately 40 hours, indicated by a slow increase in CO2 signal, a decrease in dissolved oxygen and addition of base. Indeed the cells continued to grow exponentially with concomitant production of CO2, and consumed the galactose within less than 90 hours. Based upon the CO2 production the specific growth rate was estimated to be 0.041 1/h (FIG. 3). The final biomass concentration was 21.5 g/l. The strain is referred to as PALCPR-evolved-II.
Therefore, to further improve said strain in terms of both length of lag-phase and growth rate, a 50 ml aliquot of the exponentional growing PALCPR-evolved-II strain was used to inoculate a fermentor, containing a similar medium as described in the previous example (thus containing 100 g/l galactose 100 ml of octylacetate from the beginning of the fermentation). The stirrer speed was instantly set at 800 rpm. Upon inoculation of the fermentor, consumption of galactose already commenced after less then 20 hours, indicated by a slow increase in CO2 signal, a decrease in dissolved oxygen and addition of base. Indeed the cells further grew exponentially with concomitant production of CO2, and now consumed the galactose within approximately 50 hours. Based upon the CO2 production the specific growth rate was estimated to be 0.091 1/h (FIG. 4). The final biomass concentration was 18.9 g/l. The strain is referred to as PALCPR-evolved-III.
The evolved PALCPR-evolved-III strain described in the previous example was grown in the presence of nonyl-acetate, a similar solvent as octylacetate with one additional carbon atom. A 1 ml aliquot of a glycerol stock that was made from an exponentional growing PALCPR-evolved-III strain was used to inoculate a fermentor, containing a similar medium as described in the previous example, containing only 100 g/l galactose and 100 ml of nonyl-acetate from the beginning of the fermentation. The stirrer speed was instantly set at 800 rpm. Upon inoculation of the fermentor, consumption of galactose only commenced after approximately 70 hours, indicated by a slow increase in CO2 signal, a decrease in dissolved oxygen and addition of base. […]

[7] = partition coefficient between water and octanol; cited from earlier work
[8] = test system: Escherichia coli strain FS06112; assay: Glycerol consumption of FS06112 shakeflask cultures in the presence of extraction solvent; assay type: cell-based
Method: (§4) A glycerol stock of strain FS06112 was used to inoculate 500 ml baffled shake flasks that contained 100 ml modified M9 medium consisting of 4.5 g/l glycerol, 1.5 g/l yeast extract, 3 g/l K2HPO4, 6.8 g/l Na2HPO4, 0.5 g/l NaCl, 1 g/l NH4C, 50 μg/ml ampicillin and 50 μg/ml kanamycin; the initial pH was set at 7.0. The shakeflasks were incubated at ambient temperature, and were mixed with a magnetic stirring bar at approximately 150 rpm. After 5 hours, isopropyl β-thiogalactopyranoside (IPTG) was added at a final concentration of 4 mM, as an inducer of the T7 promoter that was in front of each of the three genes TAL, 4CL and VST. After one hour an aliquot of 10 ml of the solvent octyl acetate was added to one shakeflask that is now referred to as FS06112-solvent; the shakeflask culture without solvent will be referred to as FS06112-control.
as §4, with “β-thiogalactopyranoside(IPTG)” for “β-thiogalactopyranoside (IPTG)”, “methyl decanoate” for “octyl acetate”
A glycerol stock of strain FS06112 was used to inoculate 500 ml baffled shake flasks that contained 100 ml modified M9 medium consisting of 4.5 g/l glycerol, 1.5 g/l yeast extract, 3 g/l K2HPO4, 6.8 g/l Na2HPO4, 0.5 g/l NaCl, 1 g/l NH4C, 50 μg/ml ampicillin and 50 μg/ml kanamycin; the initial pH was set at 7.0. […]

[9] = Stilbenoid levels in batch culture of PALCPR-evolved-III with nonyl-acetate vs control (HPLC); set-up: species or system S. cerevisiae; settings: for Upper phase (0.1 L) % total: PALCPR-solvent (PALCPR-evolved-III), 100 ml nonyl-acetate
Method: as §1
The stirrer speed was instantly set at 800 rpm. […] The cultivation will be referred to as PALCPR-solvent. […] The cultivation will be referred to as PALCPR-control.
as §2

[10] = PALCPR-evolved-II, 100 ml solvent from start, 800 rpm
[11] = PALCPR-evolved-III, 100 ml solvent from start, 800 rpm, fresh inoculum

SMILES	Upper phase (0.1 L) % total [1] [% total]	Lower phase (1 L) % total [1]	Upper phase (0.1 L) % total [2] [% total]	Lower phase (1 L) % total [2]	Upper phase (0.1 L) % total [3] [% total]	Lower phase (1 L) % total [3] [% total]	Upper phase (0.3 L) % total [4] [% total]	Lower phase (1 L) % total [4] [% total]	Upper phase (0.1 L) % total [5] [% total]	Lower phase (1 L) % total [5]	logP [7]	further results
Oc1cc(O)cc(/C=C/c2ccccc2)c1 [Pinosylvin, pinosylvin]	100	0.0; 0.0 % total	100	0; 0 % total	90.3	9.7	95.2	4.8	100	0; 0 % total	–	Upper phase (0.1 L) % total ([3]; listed as pinosylvin): 100 % total; Upper phase (0.3 L) % total ([4]; listed as pinosylvin): 95 % total
CCCCCCCCOC(C)=O [n-octyl acetate]	–	–	–	–	–	–	–	–	–	–	3.7	lag-phase until galactose consumption commenced [6, 10]: approximately 40 hours; specific growth rate [6, 10]: 0.041 h⁻¹; lag-phase until galactose consumption commenced [6, 11]: < 20 h; specific growth rate [6, 11]: 0.091 h⁻¹; time until cells started to grow after solvent addition (lag-phase) ([6]; cells from PALCPR-solvent culture (PALCPR-evolved-I), 100 ml solvent added to 1 L): approximately 170 hours; specific growth rate ([6]; cells from PALCPR-solvent culture (PALCPR-evolved-I), 100 ml solvent added to 1 L at onset of galactose consumption): 0.062 h⁻¹; time in which 2.5 g/l of glycerol was consumed [8]: ≤ 24 h
O=C(O)/C=C/c1ccc(O)cc1 [Coumaric acid, 4-coumaric acid]	–	–	18.0	82.0 % total	40.0	60.0	–	–	59.3	40.7 % total	–	–
CCCCCCCCCC(=O)OC [methyl decanoate]	–	–	–	–	–	–	–	–	–	–	4.3	time in which the glycerol was consumed [8]: ≤ 48 h
CCCCCCCCCC(C)=O [undecanone]	–	–	–	–	–	–	–	–	–	–	–	time in which the glycerol was consumed ([8]; FS06112-solvent, 10 ml solvent on 100 ml medium, control 30 hours): ≤ 48 h
O=C(O)C=Cc1ccccc1 [Cinnamic acid, cinnamic acid]	42.2	57.8 % total	52.5	47.5 % total	71.3	28.7	56.9	43.1	88.6	11.4 % total	–	Upper phase (0.1 L) % total ([1]; listed as cinnamic acid): 42 % total; Upper phase (0.1 L) % total [9]: 29.6 % total; Upper phase (0.1 L) % total ([9]; listed as cinnamic acid): 25 % total; Lower phase (1 L) % total ([9]; PALCPR-solvent, aqueous phase, nonyl-acetate): 70.4 % total
